Laboratory results from patent publication US9963462B2 (priority 2015, dated 2018).
pIC50: −log10 of the molar value.

Tested on: BH4 levels in SK-N-BE (2) cells
Assay: SKN-N-BE (2) cellular assay, BH4 levels by LC-MS
Type: cell-based
Conditions: Homo sapiens, SKNBE2, read-out: SK-N-BE(2) IC50, SK-N-BE (2) cells, BH4 levels by LC-MS

SMILES	pIC50
Cc1c(C(=O)N2CCN(C(C#N)c3ccc(F)cc3)CC2)cnn1-c1nn2cccc2c(=O)[nH]1 (centres unmarked) [Q-0963]	5.40
Cc1c(C(=O)N2CC(Cc3ccc(C(F)(F)F)cc3)C2)cnn1-c1nn2cccc2c(=O)[nH]1 [Q-0940]	6.10
Cc1c(C(=O)N2C[C@@H]3[C@@H](CF)[C@@H]3C2)cnn1-c1nn2cccc2c(=O)[nH]1 [Q-0961]	6.15
Cc1c(C(=O)N2CCN(CC(F)(F)F)C(=O)C2)cnn1-c1nn2cccc2c(=O)[nH]1 [Q-0980]	5.89
Cc1c(C(=O)N2CC[C@H]3CN(C(=O)OC(C)(C)C)[C@H]3C2)cnn1-c1nn2cccc2c(=O)[nH]1 [Q-0929]	5.70
Cc1c(C(=O)N2CCC(C#N)CC2)cnn1-c1nn2cccc2c(=O)[nH]1 [Q-0883]	5.89
Cc1c(C(=O)N2CC3(C2)CC(F)(F)C3)cnn1-c1nc2c(c(=O)[nH]1)CCC2 [Q-1023]	6.15
Cc1c(C(=O)N2C3CCC2CN(c2ccc(C#N)cc2)C3)cnn1-c1nn2cccc2c(=O)[nH]1 [Q-0869]	7.00
Cc1c(C(=O)N2CCN(c3nc4ccccc4s3)CC2)cnn1-c1nn2cccc2c(=O)[nH]1 [Q-0936]	6.70
Cc1c(C(=O)N2CCC(C(F)(F)F)C3(CCC3)C2)cnn1-c1nn2cccc2c(=O)[nH]1 (centres unmarked) [Q-0960]	6.70
Cc1c(C(=O)N2CCC(c3nnc4n3CCC4)CC2)cnn1-c1nn2cccc2c(=O)[nH]1 [Q-0983]	5.00
Cc1c(C(=O)N2CCC(n3nccc3C(F)(F)F)CC2)cnn1-c1nn2cccc2c(=O)[nH]1 [Q-0984]	6.40
Cc1c(C(=O)N2CCn3cncc3C2)cnn1-c1nn2cccc2c(=O)[nH]1 [Q-0873]	5.00
Cc1c(C(=O)N2CCN(C3CC4CCC3C4)CC2)cnn1-c1nn2cccc2c(=O)[nH]1 (centres unmarked) [Q-0933]	6.70
Cc1c(C(=O)N2CC(N3CC(O)(C(F)(F)F)C3)C2)cnn1-c1nn2cccc2c(=O)[nH]1 [Q-1032]	5.00
Cc1c(C(=O)N2C3CCC2CN(c2ccc(C#N)cn2)C3)cnn1-c1nn2cccc2c(=O)[nH]1 [Q-0877]	6.70
Cc1c(C(=O)N2CCN(C(=O)Cc3ccccc3F)CC2)cnn1-c1nn2cccc2c(=O)[nH]1 [Q-1012]	5.89
Cc1c(C(=O)N2CC(N3CC[C@@H](F)C3)C2)cnn1-c1nn2cccc2c(=O)[nH]1 [Q-1009]	5.70
Cc1c(C(=O)N2CCC(c3nncn3C3CC3)CC2)cnn1-c1nn2cccc2c(=O)[nH]1 [Q-0958]	5.00

SMILES	pIC50
Cc1c(C(=O)N2CCCC(c3n[nH]c(C4CC4)n3)C2)cnn1-c1nn2cccc2c(=O)[nH]1 (centres unmarked) [Q-0955]	5.00
Cc1c(C(=O)N2CCC(N3CCC[C@H]3C(F)(F)F)CC2)cnn1-c1nn2cccc2c(=O)[nH]1 [Q-1029]	6.00
Cc1c(C(=O)N2CCN3C(=O)CC[C@H]3C2)cnn1-c1nn2cccc2c(=O)[nH]1 [Q-0872]	5.00
Cc1c(C(=O)N2CCC(N3CCCC3=O)CC2)cnn1-c1nn2cccc2c(=O)[nH]1 [Q-0935]	5.80
O=C(c1cn(-c2nn3cccc3c(=O)[nH]2)nc1Cl)N1CCC(C(F)(F)F)CC1 [Q-0991]	7.00
Cc1c(C(=O)N2Cc3cc(Cl)cnc3C2)cnn1-c1nn2cccc2c(=O)[nH]1 [Q-1013]	5.82
Cc1c(C(=O)N2CC[C@H](OCc3cnc(Cl)s3)C2)cnn1-c1nn2cccc2c(=O)[nH]1 [Q-0997]	6.00
Cc1c(C(=O)N2CCN(c3nnc(C(F)(F)F)s3)CC2)cnn1-c1nn2cccc2c(=O)[nH]1 [Q-0975]	5.89
Cc1c(C(=O)N2CCN(CC(F)(F)F)CC2(C)C)cnn1-c1nn2cccc2c(=O)[nH]1 [Q-0949, 2-(4-(2,2-dimethyl-4-(2,2,2-trifluoroethyl)piperazine-1-carbonyl)-5-methyl-1H-pyrazol-1-yl)pyrrolo[1,2-f][1,2,4]triazin-4(3H)-one]	6.70
Cc1c(C(=O)N2CC3CCCC(C2)N3CC(F)(F)F)cnn1-c1nn2cccc2c(=O)[nH]1 [Q-1035]	7.00
Cc1c(C(=O)N2CC3CC(C(N)=O)CC3C2)cnn1-c1nn2cccc2c(=O)[nH]1 (centres unmarked) [Q-0879]	5.00
Cc1c(C(=O)N2CCCCC2C(F)(F)F)cnn1-c1nn2cccc2c(=O)[nH]1 (centres unmarked) [Q-0920]	6.30
Cc1c(C(=O)N2CCC3(CCN(CCC(F)(F)F)C3)CC2)cnn1-c1nn2cccc2c(=O)[nH]1 [Q-1018]	6.15
Cc1c(C(=O)N2CCC(F)(c3ccc(F)cc3)C2)cnn1-c1nn2cccc2c(=O)[nH]1 (centres unmarked) [Q-0996]	5.72
Cc1c(C(=O)N2CC(N3CC(F)C3)C2)cnn1-c1nn2cccc2c(=O)[nH]1 [Q-0981]	5.85
Cc1c(C(=O)N2CCC(N3CC[C@H](F)C3)C2)cnn1-c1nn2cccc2c(=O)[nH]1 (some centres unmarked) [Q-1030]	5.51
Cc1c(C(=O)N2CCC(N3CCCC(C(F)(F)F)C3)CC2)cnn1-c1nn2cccc2c(=O)[nH]1 (centres unmarked) [Q-1015]	6.40
Cc1c(C(=O)N2C3CCC2CN(c2ccc(C(F)(F)F)cc2)C3)cnn1-c1nn2cccc2c(=O)[nH]1 [Q-0870]	6.52
Cc1c(C(=O)N2CCN(CCC#N)CC2)cnn1-c1nn2cccc2c(=O)[nH]1 [Q-0895]	5.85

SMILES	pIC50
Cc1c(C(=O)N2CC3CC(C(F)(F)F)CC3C2)cnn1-c1nn2cccc2c(=O)[nH]1 (centres unmarked) [Q-0902]	7.00
Cc1c(C(=O)Nc2ccc(F)cc2C(C)(C)O)cnn1-c1nn2cccc2c(=O)[nH]1 [Q-1008]	6.52
Cc1c(C(=O)N2CC[C@@H](COc3nccc(Cl)n3)C2)cnn1-c1nn2cccc2c(=O)[nH]1 [Q-1043]	5.85
Cc1c(C(=O)N2CCC(N3CCCC3)CC2)cnn1-c1nn2cccc2c(=O)[nH]1 [Q-0886]	5.27
Cc1c(C(=O)N2C[C@H]3C[C@@H]2CN3C(=O)OC(C)(C)C)cnn1-c1nn2cccc2c(=O)[nH]1 [Q-0860]	6.00
Cc1c(C(=O)N2C[C@@H]3CCS(=O)(=O)[C@@H]3C2)cnn1-c1nn2cccc2c(=O)[nH]1 [Q-0971]	5.14
Cc1c(C(=O)N2CCN(C(=O)OC(C)(C)C)CC2(C)C)cnn1-c1nn2cccc2c(=O)[nH]1 [Q-0916]	6.15
Cc1c(C(=O)N2CCC(C)CC2)cnn1-c1nn2cccc2c(=O)[nH]1 [Q-1040]	6.52
Cc1c(C(=O)N2CCN3CCC[C@@]3(C)C2)cnn1-c1nn2cccc2c(=O)[nH]1 [Q-0881]	5.64
Cc1c(C(=O)N2CCC3CN(C(=O)OC(C)(C)C)CC32)cnn1-c1nn2cccc2c(=O)[nH]1 (centres unmarked) [Q-0914]	6.22
Cc1c(C(=O)N2CC[C@H](C(F)(F)F)C[C@@H]2C)cnn1-c1nc2c(c(=O)[nH]1)CCC2 (single isomer, unassigned) [Q-0459]	7.23
Cc1c(C(=O)N2CC(CC(F)(F)F)C2)cnn1-c1nn2cccc2c(=O)[nH]1 [Q-0947]	6.00
Cc1c(C(=O)N2CC(N3CCC3)C2)cnn1-c1nn2cccc2c(=O)[nH]1 [Q-0985]	5.04
CCN1CC2CCC(C1)N2C(=O)c1cnn(-c2nn3cccc3c(=O)[nH]2)c1C [Q-0884]	6.70
Cc1c(C(=O)N2CC3(CN(CC(F)F)C3)C2)cnn1-c1nn2cccc2c(=O)[nH]1 [Q-0945]	6.00
Cc1c(C(=O)N2CCC(OCc3ccc(F)cc3)CC2)cnn1-c1nn2cccc2c(=O)[nH]1 [Q-0893]	6.52
Cc1c(C(=O)N2CC[C@@H](OCc3cnc(Cl)s3)C2)cnn1-c1nn2cccc2c(=O)[nH]1 [Q-1011]	6.10
Cc1c(C(=O)N2CCC(N3CC[C@@H](F)C3)C2)cnn1-c1nn2cccc2c(=O)[nH]1 (some centres unmarked) [Q-1010]	5.40
